Measured values taken from the supplement of paper PMC10307832.

Columns and labels:
Assay in all cases: relative viability (nuclei count vs DMSO), 5 days (fraction); higher = more cells survive
[1] = system: NCI-H1993
Outline: (§1)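 The day after seeding in 1536-well plates, lung cancer cell lines were treated by pin tool with a single drug, or with a fixed anchor-drug dose together with five library-drug doses (not always all listed) in √10 steps. After 5 days, a combined fix-and-stain solution (final 0.05% Triton X-100, 1% formaldehyde, 1 ug/ml Hoechst) was added. Nuclei counted on 4× images gave relative viability as treated counts over vehicle counts, reported as the median of duplicate plates.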

[2] = system: NCI-H1395
Outline: as §1

[3] = system: LU99A
Outline: as §1

[4] = system: COR-L 105
Outline: as §1

[5] = system: CAL-12T
Outline: as §1

[6] = system: PC-3 [JPC-3]
Outline: as §1

[7] = system: LC-2-ad
Outline: as §1

[8] = system: NCI-H1944
Outline: as §1

[9] = system: NCI-H3122
Outline: as §1

[10] = system: NCI-H1734
Outline: as §1

[11] = system: HCC-15
Outline: as §1

[12] = system: HARA
Outline: as §1

[13] = system: PC-14
Outline: as §1

[14] = system: SK-LU-1
Outline: as §1

[15] = system: NCI-H838
Outline: as §1

[16] = system: HCC-366
Outline: as §1

[17] = system: NCI-H1666
Outline: as §1

[18] = system: NCI-H1975
Outline: as §1

[19] = system: H3255
Outline: as §1

[20] = system: NCI-H647
Outline: as §1

[21] = system: NCI-H522
Outline: as §1

COCC1(CO)C(=O)C2CCN1CC2 (configuration not stated) [PRIMA-1MET] + CC(=O)c1c(C)c2cnc(Nc3ccc(N4CCNCC4)cn3)nc2n(C2CCCC2)c1=O [Palbociclib] (partner 0.5 µM)
relative viability ([1]; first compound 0.2 µM): 0.668
relative viability ([1]; first compound 2 µM): 0.715
relative viability ([1]; first compound 6.325 µM): 0.698
relative viability ([1]; first compound 20 µM): 0.703
relative viability ([2]; first compound 0.2 µM): 0.665
relative viability ([2]; first compound 2 µM): 0.641
relative viability ([2]; first compound 6.325 µM): 0.656
relative viability ([2]; first compound 20 µM): 0.578
relative viability ([3]; first compound 0.2 µM): 0.43
relative viability ([3]; first compound 0.6325 µM): 0.414
relative viability ([3]; first compound 2 µM): 0.414
relative viability ([3]; first compound 6.325 µM): 0.349
relative viability ([3]; first compound 20 µM): 0.225
relative viability ([4]; first compound 0.2 µM): 0.41
relative viability ([4]; first compound 0.6325 µM): 0.363
relative viability ([4]; first compound 2 µM): 0.385
relative viability ([4]; first compound 6.325 µM): 0.41
relative viability ([4]; first compound 20 µM): 0.16
relative viability ([5]; first compound 0.2 µM): 0.339
relative viability ([5]; first compound 0.6325 µM): 0.373
relative viability ([5]; first compound 2 µM): 0.446
relative viability ([5]; first compound 6.325 µM): 0.439
relative viability ([5]; first compound 20 µM): 0.0494
relative viability ([6]; first compound 0.2 µM): 0.597
relative viability ([6]; first compound 0.6325 µM): 0.608
relative viability ([6]; first compound 2 µM): 0.573
relative viability ([6]; first compound 6.325 µM): 0.574
relative viability ([6]; first compound 20 µM): 0.521
relative viability ([7]; first compound 0.2 µM): 0.496
relative viability ([7]; first compound 0.6325 µM): 0.484
relative viability ([7]; first compound 2 µM): 0.525
relative viability ([7]; first compound 6.325 µM): 0.457
relative viability ([7]; first compound 20 µM): 0.468
relative viability ([8]; first compound 0.2 µM): 0.357
relative viability ([8]; first compound 0.6325 µM): 0.285
relative viability ([8]; first compound 2 µM): 0.288
relative viability ([8]; first compound 6.325 µM): 0.312
relative viability ([8]; first compound 20 µM): 0.295
relative viability ([9]; first compound 0.2 µM): 0.21
relative viability ([9]; first compound 0.6325 µM): 0.167
relative viability ([9]; first compound 2 µM): 0.184
relative viability ([9]; first compound 6.325 µM): 0.2
relative viability ([9]; first compound 20 µM): 0.201
relative viability ([10]; first compound 0.2 µM): 0.362
relative viability ([10]; first compound 0.6325 µM): 0.306
relative viability ([10]; first compound 2 µM): 0.369
relative viability ([10]; first compound 6.325 µM): 0.345
relative viability ([10]; first compound 20 µM): 0.053
relative viability ([11]; first compound 0.2 µM): 0.677
relative viability ([11]; first compound 0.6325 µM): 0.407
relative viability ([11]; first compound 2 µM): 0.687
relative viability ([11]; first compound 6.325 µM): 0.735
relative viability ([11]; first compound 20 µM): 0.652
relative viability ([12]; first compound 0.2 µM): 0.252
relative viability ([12]; first compound 0.6325 µM): 0.318
relative viability ([12]; first compound 6.325 µM): 0.286
relative viability ([12]; first compound 20 µM): 0.261
relative viability ([13]; first compound 0.2 µM): 0.644
relative viability ([13]; first compound 0.6325 µM): 0.476
relative viability ([13]; first compound 2 µM): 0.509
relative viability ([13]; first compound 6.325 µM): 0.525
relative viability ([13]; first compound 20 µM): 0.0303
relative viability ([14]; first compound 0.2 µM): 0.395
relative viability ([14]; first compound 0.6325 µM): 0.385
relative viability ([14]; first compound 2 µM): 0.255
relative viability ([14]; first compound 6.325 µM): 0.376
relative viability ([14]; first compound 20 µM): 0.32
relative viability ([15]; first compound 0.2 µM): 0.261
relative viability ([15]; first compound 0.6325 µM): 0.188
relative viability ([15]; first compound 2 µM): 0.207
relative viability ([15]; first compound 6.325 µM): 0.22
relative viability ([15]; first compound 20 µM): 0.232
relative viability ([16]; first compound 0.2 µM): 0.433
relative viability ([16]; first compound 0.6325 µM): 0.31
relative viability ([16]; first compound 2 µM): 0.382
relative viability ([16]; first compound 6.325 µM): 0.407
relative viability ([16]; first compound 20 µM): 0.0167
relative viability ([17]; first compound 0.2 µM): 0.69
relative viability ([17]; first compound 0.6325 µM): 0.647
relative viability ([17]; first compound 2 µM): 0.614
relative viability ([17]; first compound 6.325 µM): 0.699
relative viability ([17]; first compound 20 µM): 0.695
relative viability ([18]; first compound 0.2 µM): 0.513
relative viability ([18]; first compound 0.6325 µM): 0.483
relative viability ([18]; first compound 2 µM): 0.409
relative viability ([18]; first compound 6.325 µM): 0.693
relative viability ([18]; first compound 20 µM): 0.582
relative viability ([19]; first compound 0.2 µM): 0.319
relative viability ([19]; first compound 0.6325 µM): 0.293
relative viability ([19]; first compound 2 µM): 0.312
relative viability ([19]; first compound 6.325 µM): 0.294
relative viability ([19]; first compound 20 µM): 0.33
relative viability ([20]; first compound 0.2 µM): 0.449
relative viability ([20]; first compound 0.6325 µM): 0.387
relative viability ([20]; first compound 2 µM): 0.276
relative viability ([20]; first compound 6.325 µM): 0.481
relative viability ([20]; first compound 20 µM): 0.42
relative viability ([21]; first compound 0.2 µM): 1.05
relative viability ([21]; first compound 0.6325 µM): 0.94
relative viability ([21]; first compound 2 µM): 0.862
relative viability ([21]; first compound 6.325 µM): 0.774
relative viability ([21]; first compound 20 µM): 0.25
